Laboratory results from patent publication US5750530A, “Pharmaceutical diketopiperazine compounds” (Xenova Limited, priority 1994, dated 1998).
Where a name gives a salt, the structure may show the parent alone.

Molecular target: PAI-1 (Homo sapiens, UniProt P05121)
Experiment: biochemical
Type: biochemical
Settings: for IC50: PAI chromogenic substrate assay
How it was run: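 Compound preincubated with PAI-1 before addition to a tPA system; residual tPA converts plasminogen to plasmin, which cleaves chromogenic substrate S2251. Released p-nitroaniline read at 405 nm; values given as % inhibition at set concentrations or IC50.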

Chain of PAI-1 (P05121 24-402): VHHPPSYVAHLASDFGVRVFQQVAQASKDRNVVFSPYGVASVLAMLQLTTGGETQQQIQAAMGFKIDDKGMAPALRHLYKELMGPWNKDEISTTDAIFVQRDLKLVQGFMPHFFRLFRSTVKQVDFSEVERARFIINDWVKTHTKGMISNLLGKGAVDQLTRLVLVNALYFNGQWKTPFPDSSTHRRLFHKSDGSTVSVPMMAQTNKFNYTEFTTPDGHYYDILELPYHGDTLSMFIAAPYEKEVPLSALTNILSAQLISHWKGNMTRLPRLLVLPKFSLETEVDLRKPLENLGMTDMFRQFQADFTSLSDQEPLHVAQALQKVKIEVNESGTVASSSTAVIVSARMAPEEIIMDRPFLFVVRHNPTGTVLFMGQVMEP

% Inhibition (5 μm)	% Inhibition (20 μm)	IC50	SMILES
0%	54%	18.4 µM	COc1ccc2ccccc2c1/C=c1\[nH]c(=O)/c(=C/c2ccc(SCCN(C)C)s2)[nH]c1=O [Compound 5499.HCl, (3Z,6Z)-3-(5-(2-Dimethylaminoethylthio)-2-thienyl)methylene-6-(2-methoxy-1-naphthyl)methylene-2,5-piperazinedione]
0%	12%	> 20 µM	CN(C)CCSc1ccc(/C=c2\[nH]c(=O)/c(=C/CC(C)(C)C)[nH]c2=O)s1 [Compound 5502, (3Z,6Z)-3-(5-(2-Dimethylaminoethylthio)-2-thienyl)methylene-6-(3,3-dimethyl-1-butylidene)-2,5-piperazinedione]
0%	32%		CN(C)CCSc1ccc(/C=c2\[nH]c(=O)/c(=C/CC(C)(C)C)[nH]c2=O)s1 [Compound 5502.HCl, (3Z,6Z)-3-(5-(2-Dimethylaminoethylthio)-2-thienyl)methylene-6-(3,3-dimethyl-1-butylidene)-2,5-piperazinedione]
